Patent US20080161404A1 (ASTRAZENECA AB, priority 2005, published 2008)
“And” between values parts separate entries of the source, which are not always exact repeats. Equal values may be shown once. Read-outs that look alike come from different tables or passages of the source.

What was measured:
[1] = cited from earlier work
[2] = Clinical pharmacokinetics of (R)-bicalutamide (Css, t1/2) in prostate cancer patients given bicalutamide 300-600 mg once daily (Example 1); assay type: in vivo, human; conditions: for Steady state plasma conc. geometric mean: (R)-bicalutamide
Protocol: Plasma samples were stored at −20° C. until analysis. […] Quantification of the enantiomers was achieved using ultra-violet absorbance.
Method: Assays were performed using 0.5 ml plasma aliquots. […] A further control compound (internal standard) was added to each sample, along with 1.5 ml of pH 7 0.05M phosphate buffer (Electronic Instruments Ltd.) and 6 mls of ethyl acetate. The samples were mixed and then centrifuged and a 5 ml aliquot of the ethyl acetate layer (upper layer) was removed and evaporated to dryness in a polypropylene tube. The residue was re-dissolved in 400 μl of water:acetonitrile (70:30 v/v).
The fraction was evaporated to dryness and reconstituted in 400 μl of an HPLC eluent; 0.02 M pH 7 phosphate buffer; acetonitrile (85:15 v/v). 200 μl of the reconstituted fraction was then injected onto the chiral chromatographic system.

[3] = tested on: serum PSA levels; assay: Change in serum PSA levels in M0/M1 prostate cancer patients (Example 1); assay type: in vivo, human
Protocol: Patients had histologically or cytologically confirmed M0 (T3 or T4) or M1 prostate cancer and a PSA level ≧20 ng/mL.

[4] = tested on: advanced prostate cancer (M0 or M1); assay: Survival (Kaplan-Meier time to death) versus castration in patients with advanced prostate cancer (Example 1); conditions: 450-600 mg
Method: Tolerability was similarly assessed at 450 mg/day (3 tablets) and 600 mg/day (4 tablets).
After objective disease progression, patients were followed up every 3 months for survival and/or adverse event data.
Results are presented as for both the overall patient population and also by disease stage (M0 or M1).

## C[C@](O)(CS(=O)(=O)c1ccc(F)cc1)C(=O)Nc1ccc(C#N)c(C(F)(F)F)c1 [R-Bicalutamide]
[1]; steady state
  share of the total circulating enantiomers at steady state: approximately 99%

## 4′-cyano-α′,α′,α′-trifluoro-3-(4-fluorophenylsulphonyl)-2-hydroxy-2-methylpropiono-m-toluidide [Bicalutamide]
[2]; 300 mg once daily, 18 patients
  Steady state plasma conc. geometric mean: 35 µg/mL
[2]; 450 mg once daily, 82 patients
  Steady state plasma conc. geometric mean: 31 µg/mL
[2]; 600 mg once daily, 34 patients
  Steady state plasma conc. geometric mean: 36 µg/mL
[2]; doses ≥300 mg vs 150 mg (21.6 μg/mL)
  plasma concentration of (R)-bicalutamide higher than with bicalutamide 150 mg: approximately 50%
[2]; doses ≥300 mg vs 200 mg (28.9 μg/mL)
  plasma concentration of (R)-bicalutamide higher than with bicalutamide 200 mg: approximately 15%
[2]; patients, conventional tablets, doses of 300 mg/day and above (300-600 mg)
  mean steady state plasma concentration of R-bicalutamide: 31 to 36 µg/mL
[3]; Week 12, bicalutamide 300 mg
  percentage decrease in PSA: 93%
[3]; Week 12, bicalutamide 450 mg
  percentage decrease in PSA: 95%
[3]; Week 12, bicalutamide 600 mg
  percentage decrease in PSA: 96%
[3]; baseline to Week 4
  percentage reduction in geometric mean PSA compared with castration group: greater percentage reductions in geometric mean PSA values
[1]; bicalutamide doses of 10-200 mg
  t1/2 of (R)-bicalutamide: 150 to 213 h
[1]; patients, 150 mg daily
  mean steady state plasma concentration of R-bicalutamide: 21.6 µg/mL and 21 µg/mL
[1]; patients, bicalutamide 200 mg
  plasma concentration of (R)-bicalutamide (Css): 28900 ng/mL
[4]; M0 patients, 28/74
  events (deaths), share of patients: 37.8%
[4]; M1 patients, 43/63
  events (deaths), share of patients: 68.3%
[4]; all patients, median 5 years follow up, 71/137
  events (deaths), share of patients: 51.8%
